# How the values were obtained:
# [1] = target: T1, 14a-lanosterol demethylase (Rattus norvegicus, UniProt Q64654); conditions: compared with the other (2R,4S) enantiomer; Rotstein et al. 1992; cited from earlier work
# T1 sequence (Q64654 1-503): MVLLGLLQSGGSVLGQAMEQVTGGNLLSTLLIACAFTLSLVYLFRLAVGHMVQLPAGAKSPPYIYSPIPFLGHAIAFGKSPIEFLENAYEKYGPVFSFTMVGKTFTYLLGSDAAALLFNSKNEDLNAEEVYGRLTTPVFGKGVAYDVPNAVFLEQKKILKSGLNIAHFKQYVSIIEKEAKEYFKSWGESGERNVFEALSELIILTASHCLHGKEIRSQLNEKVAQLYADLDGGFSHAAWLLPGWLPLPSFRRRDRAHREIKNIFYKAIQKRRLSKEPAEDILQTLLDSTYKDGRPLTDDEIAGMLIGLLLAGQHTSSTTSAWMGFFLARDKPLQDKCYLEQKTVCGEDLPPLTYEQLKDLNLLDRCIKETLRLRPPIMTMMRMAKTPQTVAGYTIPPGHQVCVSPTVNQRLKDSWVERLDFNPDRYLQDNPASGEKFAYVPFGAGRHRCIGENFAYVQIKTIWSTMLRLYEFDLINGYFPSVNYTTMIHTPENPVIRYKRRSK
# [2] = system: patients with type 2 diabetes mellitus; assay: Phase 2a trial, LDL cholesterol; assay type: in vivo, human; conditions: for LDL cholesterol Visit 1 mean: Visit 1 (baseline, before first dose); for LDL cholesterol Mean % change / LDL cholesterol change mean / LDL cholesterol Visit 3 mean: 14 daily doses; for LDL cholesterol Visit 3 mean: Visit 3 (Day 15)
# Description: (§1) Five (5) dose groups were studied.
# (§2) The first dose of the study drug was given on Day 1 at 2200 h. Activity markers measured on Day 1 prior to administration of the drug (“Visit 1”). The last dose of study drug was given on Day 14 at 2200 h and activity markers measured on Day 15 (“Visit 3”). Measurements of safety markers were taken on Visits 1 and 3, as well as Visit 2 (Day 8) and Visit 4 (Day 28).
# [3] = system: patients with type 2 diabetes mellitus; assay: Phase 2a trial, continuous blood pressure monitoring; assay type: in vivo, human; conditions: Visits 1 and 3, 14 daily doses
# Description: as §1
# Continuous blood pressure monitoring was performed during Visits 1 and 3.
# [4] = system: patients with type 2 diabetes mellitus; assay: Phase 2a trial, liver function tests (AST/ALT/AP)
# Description: as §2
# [5] = system: patients with type 2 diabetes mellitus; assay: Phase 2a trial, total cholesterol; assay type: in vivo, human; conditions: for Total cholesterol Visit 1 mean: Visit 1 (baseline, before first dose); for Total cholesterol Change mean / Total cholesterol Mean % change / Total cholesterol Visit 3 mean: 14 daily doses; for Total cholesterol Visit 3 mean: Visit 3 (Day 15)
# Description: as §1, §2
# [6] = system: patients with type 2 diabetes mellitus; assay: Phase 2a trial, fructosamine (glycemic control); assay type: in vivo, human; conditions: for Fructosamine Visit 1 mean: Visit 1 (baseline, before first dose); for Fructosamine Change vs Baseline mean / Fructosamine Visit 3 mean: 14 daily doses; for Fructosamine Visit 3 mean: Visit 3 (Day 15)
# Description: as §1, §2
# Fructosamine levels were measured at baseline and after two weeks of therapy (see Table 4 and FIGS. 1 and 2). […] Fructosamine levels reflect blood glucose levels over the preceding 2-3 weeks.
# [7] = system: patients with type 2 diabetes mellitus; assay: Phase 2a trial, HbA1c (glycemic control); assay type: in vivo, human; conditions: for Visit 1 HbA1c mean: Visit 1 (Day 1, before first dose, baseline); for HbA1c Change vs Baseline mean / Visit 3 HbA1c mean: 14 daily doses; for Visit 3 HbA1c mean: Visit 3 (Day 15)
# Description: as §1, §2
# This test measure levels of glycated hemoglobin and reflects the average blood glucose level for a subject over the preceding 3 months (approximately). Elevated levels are common in diabetics. Lowering the hemoglobin A1c number can delay or prevent the development of serious eye, kidney, and nerve disease in individuals with diabetes.
# [8] = system: patients with type 2 diabetes mellitus; assay: Phase 2a trial, fasting glucose; conditions: two weeks of treatment
# Description: The secondary objective was to determine the pharmacokinetic (PK) profile in plasma of the 2S,4R enantiomer after a single dosing and after fourteen daily doses. In addition the pharmacodynamic activity of fourteen daily doses of the 2S,4R enantiomer, as reflected by changes in blood pressure, total and LDL cholesterol, CRP, plasma and salivary cortisol, cortisol binding globulin, measures of glycemic control (fructosamine, HbA1c and fasting blood glucose levels).
# Five (5) dose groups were studied. The dose groups are as follows (N=subjects who completed the study):
# [9] = plasma; Beagle dogs, racemic ketoconazole 30 mg/dog intravenous bolus
# Description: The pharmacokinetics of each of the ketoconazole enantiomers was studied following intravenous administration of racemic ketoconazole. Racemic ketoconazolewas dissolved in ethanol to 60 mg/ml. Each of three Beagle dogs was administered 0.5 ml bolus (30 mg/dog) intravenously.
# Blood was collected from each dog prior to dosing (“0 min”) and at 2, 5, 10, 15, 30 min, and 1, 2, 4, 6, 8, and 24 hrs post-dosing. At each timepoint, blood (0.3 mL/sample) was collected and placed into labeled Microtainer® tubes with heparin as the anti-coagulant. The heparinized blood was centrifuged, and the supernatant pipetted off into another set of labeled Eppendorf® tubes. The derived plasma samples were analyzed for each of the two ketoconazole enantiomers (2S,4R and 2R,4S) and pharmacokinetic parameters determined for each of the enantiomers.
# [10] = system: patients with type 2 diabetes mellitus; assay: Phase 2a trial, C-reactive protein (marker of inflammation); assay type: in vivo, human; conditions: for C-Reactive Protein (CRP) Visit 1 mean: Visit 1 (baseline, before first dose); for C-Reactive Protein (CRP) Visit 3 mean: Visit 3 (Day 15)
# Description: as §1, §2
# [11] = Subject 02-002, 200 mg DIO-902, Screening Visit
# [12] = Subject 02-002, 200 mg DIO-902, Visit 1 (pre-1st dose)
# [13] = Subject 02-002, 200 mg DIO-902, Visit 2
# [14] = Subject 02-002, 200 mg DIO-902, Visit 3 (last dose)
# [15] = Subject 04-004, 400 mg DIO-902, Screening Visit
# [16] = Subject 04-004, 400 mg DIO-902, Visit 1 (pre-1st dose)
# [17] = Subject 04-004, 400 mg DIO-902, Visit 2
# [18] = Subject 04-004, 400 mg DIO-902, Visit 3 (last dose)
# [19] = Subject 04-010, 400 mg DIO-902, Screening Visit
# [20] = Subject 04-010, 400 mg DIO-902, Visit 1 (pre-1st dose)
# [21] = Subject 04-010, 400 mg DIO-902, Visit 2
# [22] = Subject 04-010, 400 mg DIO-902, Visit 3 (last dose)
substance,measurement,setting,value
"2S,4R ketoconazole [DIO-902]",activity against 14a-lanosterol demethylase,[1],more active
same,LDL cholesterol Visit 1 mean,[2]; 200 mg po QD group,141.60 mg/dL
same,LDL cholesterol Mean % change,[2]; 200 mg po QD,−11.39%
same,LDL cholesterol change mean,[2]; 200 mg po QD,-17.20 mg/dL
same,LDL cholesterol Visit 3 mean,[2]; 200 mg po QD,124.40 mg/dL
same,LDL cholesterol Visit 1 mean,[2]; 400 mg po QD group,133.33 mg/dL
same,LDL cholesterol Mean % change,[2]; 400 mg po QD,−27.44%
same,LDL cholesterol change mean,[2]; 400 mg po QD,-35.50 mg/dL
same,LDL cholesterol Visit 3 mean,[2]; 400 mg po QD,97.83 mg/dL
same,LDL cholesterol Visit 1 mean,[2]; 600 mg po QD group,125.67 mg/dL
same,LDL cholesterol Mean % change,[2]; 600 mg po QD,−42.14%
same,LDL cholesterol change mean,[2]; 600 mg po QD,-41.25 mg/dL
same,LDL cholesterol Visit 3 mean,[2]; 600 mg po QD,70.67 mg/dL
same,effect on LDL-C,[2]; two-week administration,"Statistically significant, dose dependent decreases"
same,effect on blood pressure readings,[3],no reductions
same,evidence of hepatotoxicity,[4]; 14 daily doses,not observed
same,ALT,[4]; [11],30 u/L
same,AP,[4]; [11],110 u/L
same,AST,[4]; [11],58 u/L
same,ALT,[4]; [12],22 u/L
same,AP,[4]; [12],100 u/L
same,AST,[4]; [12],34 u/L
same,ALT,[4]; [13],21 u/L
same,AP,[4]; [13],103 u/L
same,AST,[4]; [13],30 u/L
same,ALT,[4]; [14],19 u/L
same,AP,[4]; [14],97 u/L
same,AST,[4]; [14],35 u/L
same,ALT,[4]; [15],25 u/L
same,AP,[4]; [15],132 u/L
same,AST,[4]; [15],48 u/L
same,ALT,[4]; [16],25 u/L
same,AP,[4]; [16],108 u/L
same,AST,[4]; [16],49 u/L
same,ALT,[4]; [17],28 u/L
same,AP,[4]; [17],125 u/L
same,AST,[4]; [17],49 u/L
same,ALT,[4]; [18],25 u/L
same,AP,[4]; [18],130 u/L
same,AST,[4]; [18],46 u/L
same,ALT,[4]; [19],27 u/L
same,AP,[4]; [19],73 u/L
same,AST,[4]; [19],49 u/L
same,ALT,[4]; [20],24 u/L
same,AP,[4]; [20],60 u/L
same,AST,[4]; [20],48 u/L
same,ALT,[4]; [21],14 u/L
same,AP,[4]; [21],82 u/L
same,AST,[4]; [21],40 u/L
same,ALT,[4]; [22],19 u/L
same,AP,[4]; [22],64 u/L
same,AST,[4]; [22],38 u/L
same,"liver function test values outside the normal range at baseline (hepato-protection, words)",[4]; two patients,normalized
same,Total cholesterol Visit 1 mean,[5]; 200 mg po QD group,227.20 mg/dL
same,Total cholesterol Change mean,[5]; 200 mg po QD,-26.10 mg/dL
same,Total cholesterol Mean % change,[5]; 200 mg po QD,−11.66%
same,Total cholesterol Visit 3 mean,[5]; 200 mg po QD,202.45 mg/dL
same,Total cholesterol Visit 1 mean,[5]; 400 mg po QD group,224.50 mg/dL
same,Total cholesterol Change mean,[5]; 400 mg po QD,-34.00 mg/dL
same,Total cholesterol Mean % change,[5]; 400 mg po QD,−15.35%
same,Total cholesterol Visit 3 mean,[5]; 400 mg po QD,190.50 mg/dL
same,Total cholesterol Visit 1 mean,[5]; 600 mg po QD group,195.33 mg/dL
same,Total cholesterol Change mean,[5]; 600 mg po QD,-48.75 mg/dL
same,Total cholesterol Mean % change,[5]; 600 mg po QD,−29.97%
same,Total cholesterol Visit 3 mean,[5]; 600 mg po QD,130.33 mg/dL
same,effect on total cholesterol,[5]; two-week administration,"Statistically significant, dose dependent decreases"
same,Fructosamine Visit 1 mean,[6]; 200 mg po QD group,262 µmol/L
same,Fructosamine Change vs Baseline mean,[6]; 200 mg po QD,-12.20 µmol/L
same,Fructosamine Visit 3 mean,[6]; 200 mg po QD,249.80 µmol/L
same,Fructosamine Visit 1 mean,[6]; 400 mg po QD group,271.00 µmol/L
same,Fructosamine Change vs Baseline mean,[6]; 400 mg po QD,-8.33 µmol/L
same,Fructosamine Visit 3 mean,[6]; 400 mg po QD,262.67 µmol/L
same,Fructosamine Visit 1 mean,[6]; 600 mg po QD group,276.33 µmol/L
same,Fructosamine Change vs Baseline mean,[6]; 600 mg po QD,-29.33 µmol/L
same,Fructosamine Visit 3 mean,[6]; 600 mg po QD,247.00 µmol/L
same,effect on fructosamine,[6]; administration for 14 days,trends toward a reduction
same,Visit 1 HbA1c mean,[7]; 200 mg po QD group,8.18%
same,HbA1c Change vs Baseline mean,[7]; 200 mg po QD,−0.32%
same,Visit 3 HbA1c mean,[7]; 200 mg po QD,7.86%
same,Visit 1 HbA1c mean,[7]; 400 mg po QD group,7.88%
same,HbA1c Change vs Baseline mean,[7]; 400 mg po QD,−0.18%
same,Visit 3 HbA1c mean,[7]; 400 mg po QD,7.70%
same,Visit 1 HbA1c mean,[7]; 600 mg po QD group,9.10%
same,HbA1c Change vs Baseline mean,[7]; 600 mg po QD,−0.47%
same,Visit 3 HbA1c mean,[7]; 600 mg po QD,8.63%
same,effect on HbA1c,[7]; administration for 14 days,trends toward a reduction
same,Reductions in fasting glucose levels,[8],up to 15 mg/dL
same,clearance,[9],485 mL/h/kg
same,terminal half life,[9],1.397 h
same,C-Reactive Protein (CRP) Visit 1 mean,[10]; 200 mg po QD group,6.91 mg/L
same,CRP Mean % change vs baseline,"[10]; 200 mg po QD, 14 daily doses",−19.8%
same,C-Reactive Protein (CRP) Visit 3 mean,"[10]; 200 mg po QD, 14 daily doses",4.78 mg/L
same,C-Reactive Protein (CRP) Visit 1 mean,[10]; 400 mg po QD group,4.02 mg/L
same,CRP Mean % change vs baseline,"[10]; 400 mg po QD, 14 daily doses",−27.35%
same,C-Reactive Protein (CRP) Visit 3 mean,"[10]; 400 mg po QD, 14 daily doses",2.95 mg/L
same,C-Reactive Protein (CRP) Visit 1 mean,[10]; 600 mg po QD group,8.35 mg/L
same,CRP Mean % change vs baseline,"[10]; 600 mg po QD, 14 daily doses",−48.64%
same,C-Reactive Protein (CRP) Visit 3 mean,"[10]; 600 mg po QD, 14 daily doses",5.05 mg/L
same,effect on CRP,[10]; 14 daily doses,dose-dependent decrease

# Source: patent publication US9198906B2, “Ketoconazole enantiomer in humans” (Cortendo AB (publ), priority 2006, dated 2015)
